In US20260027116A1, “Methods of Treating Chronic Graft-Versus-Host Disease Following Allogeneic Hematopoietic Stem Cell Transplantation” (Kadmon Corporation, LLC, priority 2022, published 2026):

Tested on: patients with cGVHD
Settings: Cohort 1 200 mg QD

CC(C)NC(=O)COc1cccc(-c2nc(Nc3ccc4[nH]ncc4c3)c3ccccc3n2)c1 [Belumosudil, 2-{3-[4-(1H-indazol-5-ylamino)-2-quinazolinyl]phenoxy}-N-(propan-2-yl) acetamide]
Abdominal distension: # Events: 1 | Abdominal distension: Affected/At Risk (%): 1/17 (5.88%) | Abdominal pain upper: # Events: 1 | Abdominal pain upper: Affected/At Risk (%): 1/17 (5.88%) | Abdominal pain: # Events: 2 | Abdominal pain: Affected/At Risk (%): 2/17 (11.76%) | Actinic keratosis: # Events: 0 | Actinic keratosis: Affected/At Risk (%): 0/17 (0%) | Acute kidney injury: # Events: 4 | Acute kidney injury: Affected/At Risk (%): 1/17 (5.88%) | Acute respiratory distress syndrome: # Events: 1 | Acute respiratory distress syndrome: Affected/At Risk (%): 1/17 (5.88%) | Adrenal insufficiency: # Events: 2 | Adrenal insufficiency: Affected/At Risk (%): 1/17 (5.88%) | Alanine aminotransferase increased: # Events: 12 | Alanine aminotransferase increased: Affected/At Risk (%): 6/17 (35.29%) | All grade ALT/AST increased, No. (%): 11 (65) | All grade Cough, No. (%): 1 (6) | All grade Diarrhea, No. (%): 6 (35) | All grade Dyspnea, No. (%): 3 (18) | All grade Fatigue, No. (%): 6 (35) | All grade Headache, No. (%): 4 (24) | All grade Hypertension, No. (%): 5 (29) | All grade Nausea, No. (%): 6 (35) | All grade Peripheral edema, No. (%): 3 (18) | All grade URI, No. (%): 9 (53) | All-Cause Mortality, %: (11.76%) | All-Cause Mortality, Affected/At Risk: 2/17 | Anaemia: # Events: 14 | Anaemia: Affected/At Risk (%): 5/17 (29.41%) | Anal incontinence: # Events: 2 | Anal incontinence: Affected/At Risk (%): 1/17 (5.88%) | Anxiety: # Events: 1 | Anxiety: Affected/At Risk (%): 1/17 (5.88%) | Any AE, No. (%): 17 (100) | Arthralgia: # Events: 1 | Arthralgia: Affected/At Risk (%): 1/17 (5.88%) | Aspartate aminotransferase increased: # Events: 8 | Aspartate aminotransferase increased: Affected/At Risk (%): 5/17 (29.41%) | Asthenia: # Events: 0 | Asthenia: Affected/At Risk (%): 0/17 (0%) | Atelectasis: # Events: 1 | Atelectasis: Affected/At Risk (%): 1/17 (5.88%) | Back pain: # Events: 0 | Back pain: Affected/At Risk (%): 0/17 (0%) | Balance disorder: # Events: 0 | Balance disorder: Affected/At Risk (%): 0/17 (0%) | Basal cell carcinoma: # Events: 0 | Basal cell carcinoma: Affected/At Risk (%): 0/17 (0%) | Benign prostatic hyperplasia: # Events: 1 | Benign prostatic hyperplasia: Affected/At Risk (%): 1/17 (5.88%) | Blepharitis: # Events: 1 | Blepharitis: Affected/At Risk (%): 1/17 (5.88%) | Blister: # Events: 0 | Blister: Affected/At Risk (%): 0/17 (0%) | Blood alkaline phosphatase increased: # Events: 6 | Blood alkaline phosphatase increased: Affected/At Risk (%): 4/17 (23.53%) | Blood chloride decreased: # Events: 0 | Blood chloride decreased: Affected/At Risk (%): 0/17 (0%) | Blood cholesterol increased: # Events: 2 | Blood cholesterol increased: Affected/At Risk (%): 1/17 (5.88%) | Blood creatine increased: # Events: 0 | Blood creatine increased: Affected/At Risk (%): 0/17 (0%) | Blood creatine phosphokinase increased: # Events: 1 | Blood creatine phosphokinase increased: Affected/At Risk (%): 1/17 (5.88%) | Blood creatinine increased: # Events: 1 | Blood creatinine increased: Affected/At Risk (%): 1/17 (5.88%) | Blood loss anaemia: # Events: 1 | Blood loss anaemia: Affected/At Risk (%): 1/17 (5.88%) | Bronchial secretion retention: # Events: 0 | Bronchial secretion retention: Affected/At Risk (%): 0/17 (0%) | Bronchitis: # Events: 1 | Bronchitis: Affected/At Risk (%): 1/17 (5.88%) | Bronchoscopy: # Events: 1 | Bronchoscopy: Affected/At Risk (%): 1/17 (5.88%) | Catheter site haemorrhage: # Events: 1 | Catheter site haemorrhage: Affected/At Risk (%): 1/17 (5.88%) | Chills: # Events: 1 | Chills: Affected/At Risk (%): 1/17 (5.88%) | Chronic kidney disease: # Events: 1 | Chronic kidney disease: Affected/At Risk (%): 1/17 (5.88%) | Conjunctival haemorrhage: # Events: 0 | Conjunctival haemorrhage: Affected/At Risk (%): 0/17 (0%) | Conjunctivitis: # Events: 0 | Conjunctivitis: Affected/At Risk (%): 0/17 (0%) | Constipation: # Events: 1 | Constipation: Affected/At Risk (%): 1/17 (5.88%) | Contrast media allergy: # Events: 0 | Contrast media allergy: Affected/At Risk (%): 0/17 (0%) | Contusion: # Events: 2 | Contusion: Affected/At Risk (%): 2/17 (11.76%) | Corneal abrasion: # Events: 1 | Corneal abrasion: Affected/At Risk (%): 1/17 (5.88%) | Corneal infection: # Events: 0 | Corneal infection: Affected/At Risk (%): 0/17 (0%) | Cough: # Events: 1 | Cough: Affected/At Risk (%): 1/17 (5.88%) | Death, No. (%): 0 | Decreased appetite: # Events: 4 | Decreased appetite: Affected/At Risk (%): 2/17 (11.76%) | Dehydration: # Events: 2 | Dehydration: Affected/At Risk (%): 2/17 (11.76%) | Depression: # Events: 0 | Depression: Affected/At Risk (%): 0/17 (0%) | Diarrhoea: # Events: 9 | Diarrhoea: Affected/At Risk (%): 6/17 (35.29%) | Dizziness: # Events: 0 | Dizziness: Affected/At Risk (%): 0/17 (0%) | Drug eruption: # Events: 0 | Drug eruption: Affected/At Risk (%): 0/17 (0%) | Drug-related AE, No. (%): 8 (47) | Drug-related SAE, No. (%): 0 | Dry eye: # Events: 3 | Dry eye: Affected/At Risk (%): 2/17 (11.76%) | Dry skin: # Events: 1 | Dry skin: Affected/At Risk (%): 1/17 (5.88%) | Dyspepsia: # Events: 0 | Dyspepsia: Affected/At Risk (%): 0/17 (0%) | Dysphagia: # Events: 1 | Dysphagia: Affected/At Risk (%): 1/17 (5.88%) | Dyspnoea exertional: # Events: 1 | Dyspnoea exertional: Affected/At Risk (%): 1/17 (5.88%) | Dyspnoea: # Events: 2 | Dyspnoea: Affected/At Risk (%): 2/17 (11.76%) | Embolism: # Events: 1 | Embolism: Affected/At Risk (%): 1/17 (5.88%) | Enamel anomaly: # Events: 0 | Enamel anomaly: Affected/At Risk (%): 0/17 (0%) | Epidural lipomatosis: # Events: 1 | Epidural lipomatosis: Affected/At Risk (%): 1/17 (5.88%) | Epstein-Barr virus infection: # Events: 1 | Epstein-Barr virus infection: Affected/At Risk (%): 1/17 (5.88%) | Erectile dysfunction: # Events: 4 | Erectile dysfunction: Affected/At Risk (%): 2/17 (11.76%) | Eye irritation: # Events: 1 | Eye irritation: Affected/At Risk (%): 1/17 (5.88%) | Eye pain: # Events: 0 | Eye pain: Affected/At Risk (%): 0/17 (0%) | Eye pruritus: # Events: 0 | Eye pruritus: Affected/At Risk (%): 0/17 (0%) | Fall: # Events: 2 | Fall: Affected/At Risk (%): 2/17 (11.76%) | Fatigue: # Events: 7 | Fatigue: Affected/At Risk (%): 6/17 (35.29%) | Flatulence: # Events: 0 | Flatulence: Affected/At Risk (%): 0/17 (0%) | Flushing: # Events: 0 | Flushing: Affected/At Risk (%): 0/17 (0%) | Fungal infection: # Events: 1 | Fungal infection: Affected/At Risk (%): 1/17 (5.88%) | Gamma-glutamyltransferase increased: # Events: 9 | Gamma-glutamyltransferase increased: Affected/At Risk (%): 4/17 (23.53%) | Gastric ulcer: # Events: 0 | Gastric ulcer: Affected/At Risk (%): 0/17 (0%) | Gastrooesophageal reflux disease: # Events: 2 | Gastrooesophageal reflux disease: Affected/At Risk (%): 2/17 (11.76%) | Generalised oedema: # Events: 1 | Generalised oedema: Affected/At Risk (%): 1/17 (5.88%) | Genital infection fungal: # Events: 0 | Genital infection fungal: Affected/At Risk (%): 0/17 (0%) | Glaucoma: # Events: 0 | Glucose urine present: # Events: 3 | Glucose urine present: Affected/At Risk (%): 2/17 (11.76%) | Grade ≥3 AE, No. (%): 9 (53) | Grade ≥3 ALT/AST increased, No. (%): 2 (12) | Grade ≥3 Anemia, No. (%): 2 (12) | Grade ≥3 Dyspnea, No. (%): 1 (6) | Grade ≥3 Hyperglycemia, No. (%): 2 (12) | Grade ≥3 Hypoxia, No. (%): 1 (6)
